In patent US20230160909A1, “NOVEL ION CONDUCTING CHANNEL FUSION SUBUNITS AND METHODS OF USE THEREOF” (UNIVERSITE DE BORDEAUX, priority 2020, published 2023):
One block for each compound: values may come before it.

Key:
Assay type in all cases: cell-based
TRPV1 channel = target: T1, TRPV1 channel (Homo sapiens, UniProt Q8NER1); test: hTRPV1-nLuc-Calflux-YFP (or mNeonGreen) BRET probe in HEK293T cells; settings: TRPV1-nLuc-Calflux-YFP/mNeonGreen probe
T1 construct: expressed in transfected cells; host or cells: HEK293T

TRPV1 ion channel = target: T2, TRPV1 ion channel (Homo sapiens, UniProt Q8NER1); test: mNeonGreen-Calflux-nLuc-hTRPV1 BRET biosensor in HEK293T cells; settings: kinetic measurement, FIG. 8A
T2 construct: expressed in transfected cells; host or cells: HEK293T

P2X2 = target: T3, P2X2 (Rattus norvegicus, UniProt P49653); test: rP2X2-nLuc-Calflux-YFP BRET probe in HEK293T cells; settings: read-out: EC50 of activation of P2X2-NLuc-CalFlux-YFP probe
T3 construct: expressed in transfected cells; host or cells: HEK293T
T3 sequence (P49653 1-472): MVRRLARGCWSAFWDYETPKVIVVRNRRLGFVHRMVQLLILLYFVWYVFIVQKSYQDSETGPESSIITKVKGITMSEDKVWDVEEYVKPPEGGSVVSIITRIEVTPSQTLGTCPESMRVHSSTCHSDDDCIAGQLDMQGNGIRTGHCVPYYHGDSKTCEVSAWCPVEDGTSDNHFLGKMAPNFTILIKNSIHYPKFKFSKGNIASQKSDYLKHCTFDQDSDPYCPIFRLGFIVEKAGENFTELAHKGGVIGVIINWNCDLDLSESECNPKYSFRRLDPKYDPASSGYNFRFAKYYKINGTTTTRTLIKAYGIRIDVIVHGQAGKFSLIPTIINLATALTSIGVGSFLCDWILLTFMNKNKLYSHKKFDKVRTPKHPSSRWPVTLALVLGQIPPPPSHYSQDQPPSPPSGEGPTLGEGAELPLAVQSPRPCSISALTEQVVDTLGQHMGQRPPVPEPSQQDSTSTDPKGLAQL

hP2X2 = target: T4, hP2X2 (Homo sapiens, UniProt Q9UBL9); test: hP2X2-NeonGreen-Calflux-nLuc BRET probe in HEK293T cells; settings: read-out: EC50 of activation of hP2X2 probe
T4 construct: expressed in transfected cells; host or cells: HEK293T
T4 sequence (Q9UBL9 1-471): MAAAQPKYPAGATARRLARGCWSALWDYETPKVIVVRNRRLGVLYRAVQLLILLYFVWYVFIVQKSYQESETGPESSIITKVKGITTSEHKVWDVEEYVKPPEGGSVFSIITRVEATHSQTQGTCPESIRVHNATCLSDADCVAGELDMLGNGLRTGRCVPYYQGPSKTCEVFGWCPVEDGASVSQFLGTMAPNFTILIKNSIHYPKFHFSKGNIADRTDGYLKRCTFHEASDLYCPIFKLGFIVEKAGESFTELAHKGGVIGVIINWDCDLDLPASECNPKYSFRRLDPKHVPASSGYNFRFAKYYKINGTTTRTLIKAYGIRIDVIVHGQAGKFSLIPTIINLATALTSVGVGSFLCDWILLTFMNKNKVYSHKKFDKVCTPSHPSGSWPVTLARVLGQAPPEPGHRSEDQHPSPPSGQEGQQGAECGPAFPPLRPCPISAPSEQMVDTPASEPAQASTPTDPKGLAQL
From the text: (§1) Values were normalized to the maximal efficacy measured individually for each probe and represent the mean of three independent experiments.
(§2) We constructed human and murine P2X-NeonGreen-Calflux-nLuc probes wherein the DNA sequence encoding the seven human or mouse P2X subunits are individually fused in C-terminal to the calflux calcium sensor sandwiched in between the nanoluciferase and mNeonGreen (FIG. 11 left panel).

hP2X4 = target: T5, hP2X4 (Homo sapiens, UniProt Q99571); test: hP2X4-NeonGreen-Calflux-nLuc BRET probe in HEK293T cells; settings: read-out: EC50 of activation of hP2X4 probe
T5 construct: expressed in transfected cells; host or cells: HEK293T
T5 sequence (Q99571 1-388): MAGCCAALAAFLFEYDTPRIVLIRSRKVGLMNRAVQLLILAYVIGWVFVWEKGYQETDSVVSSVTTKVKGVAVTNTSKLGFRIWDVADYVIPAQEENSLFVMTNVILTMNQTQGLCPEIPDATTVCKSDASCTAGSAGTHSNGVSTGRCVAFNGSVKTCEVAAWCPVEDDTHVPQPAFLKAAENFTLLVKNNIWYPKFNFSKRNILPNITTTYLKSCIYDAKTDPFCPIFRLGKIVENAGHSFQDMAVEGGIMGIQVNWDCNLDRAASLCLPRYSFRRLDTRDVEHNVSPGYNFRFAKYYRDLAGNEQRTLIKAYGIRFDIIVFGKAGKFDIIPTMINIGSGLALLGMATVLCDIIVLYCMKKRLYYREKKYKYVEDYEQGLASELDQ
From the text: as §1, §2

hP2X5 = target: T6, hP2X5 (Homo sapiens, UniProt Q93086); test: hP2X5-NeonGreen-Calflux-nLuc BRET probe in HEK293T cells; settings: read-out: EC50 of activation of hP2X5 probe
T6 construct: expressed in transfected cells; host or cells: HEK293T
From the text: as §1, §2

mP2X4 = target: T7, mP2X4 (Mus musculus, UniProt Q9JJX6); test: mP2X4-NeonGreen-Calflux-nLuc BRET probe in HEK293T cells; settings: FIG. 11
T7 construct: expressed in transfected cells; host or cells: HEK293T
T7 sequence (Q9JJX6 1-388): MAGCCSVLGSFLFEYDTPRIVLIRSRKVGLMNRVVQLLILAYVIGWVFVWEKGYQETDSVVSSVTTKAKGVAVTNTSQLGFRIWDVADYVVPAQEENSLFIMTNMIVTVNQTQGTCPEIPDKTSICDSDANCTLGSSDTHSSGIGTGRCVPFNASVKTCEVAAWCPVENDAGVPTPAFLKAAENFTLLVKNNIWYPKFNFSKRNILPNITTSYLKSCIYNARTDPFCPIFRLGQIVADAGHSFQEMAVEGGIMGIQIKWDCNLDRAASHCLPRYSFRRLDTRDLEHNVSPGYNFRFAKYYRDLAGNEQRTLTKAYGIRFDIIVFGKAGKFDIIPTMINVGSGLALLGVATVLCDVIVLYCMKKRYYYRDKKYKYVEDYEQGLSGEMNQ
From the text: as §1, §2

GABARho1 (GABA receptor) = target: T8, GABARho1 (GABA receptor) (Homo sapiens, UniProt P24046); test: YPetCI BRET sensor inserted in GABARho1 subunit; settings: with or without untagged GABARho1 subunit, FIG. 13G
T8 construct: expressed in transfected cells; host or cells: HEK cells are stated only for the free probe
From the text: FIG. 13: Biosensors allowing to track Cys-loop receptor family activity. Insertion of NG-CF-NL or NL-CF-YFP probes in the second intracellular loop of cationic receptors (A) allows to track activity of nicotinic (B) or serotonin receptors (C). A BRET probe called YPetCI was also developed to sense intracellular anionic flux (D and F). When inserted in the second intracellular loop of GABARho1 subunit this probe allows to track activity of the GABA receptor (G).
We also developed a BRET probe allowing to sense anionic flux by fusing the cDNA of a chloride sensitive variant of YFP (YFP Chlore or YPetCI) to the cDNA of nLuc (FIG. 13D). When expressed in HEK cells this probe is able to detect the anionic influx generated by VRAC channel opening following a hypotonic challenge (FIG. 13F). Based on this probe, we generated a biosensor allowing to measure the activity of the anionic GABA receptors. We inserted the cDNA of the YPetCI sensor in the second intracellular loop of the GABARho1 subunit (FIG. 13E).

hP2X7 = target: T9, hP2X7 (Homo sapiens, UniProt Q99572); test: hP2X7-NeonGreen-Calflux-nLuc BRET probe in HEK293T cells; settings: read-out: EC50 of activation of hP2X7 probe
T9 construct: expressed in transfected cells; host or cells: HEK293T
T9 sequence (Q99572 1-595): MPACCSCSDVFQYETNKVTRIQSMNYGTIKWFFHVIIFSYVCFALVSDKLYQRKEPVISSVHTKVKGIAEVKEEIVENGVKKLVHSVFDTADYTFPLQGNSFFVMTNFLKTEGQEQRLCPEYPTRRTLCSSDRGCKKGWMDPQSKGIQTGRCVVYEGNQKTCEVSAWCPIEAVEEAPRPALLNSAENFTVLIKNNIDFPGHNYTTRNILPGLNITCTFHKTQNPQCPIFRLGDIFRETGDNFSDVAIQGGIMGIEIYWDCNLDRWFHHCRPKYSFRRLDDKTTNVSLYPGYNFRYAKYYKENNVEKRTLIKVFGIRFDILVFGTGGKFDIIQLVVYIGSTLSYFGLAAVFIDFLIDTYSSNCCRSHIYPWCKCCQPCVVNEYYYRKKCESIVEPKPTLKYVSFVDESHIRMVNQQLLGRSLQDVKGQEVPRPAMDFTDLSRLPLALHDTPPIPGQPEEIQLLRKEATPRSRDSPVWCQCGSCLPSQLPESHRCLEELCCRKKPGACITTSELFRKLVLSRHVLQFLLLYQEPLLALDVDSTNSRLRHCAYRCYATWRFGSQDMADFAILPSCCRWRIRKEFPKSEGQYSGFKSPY
From the text: as §1, §2

T8 sequence (P24046 22-479): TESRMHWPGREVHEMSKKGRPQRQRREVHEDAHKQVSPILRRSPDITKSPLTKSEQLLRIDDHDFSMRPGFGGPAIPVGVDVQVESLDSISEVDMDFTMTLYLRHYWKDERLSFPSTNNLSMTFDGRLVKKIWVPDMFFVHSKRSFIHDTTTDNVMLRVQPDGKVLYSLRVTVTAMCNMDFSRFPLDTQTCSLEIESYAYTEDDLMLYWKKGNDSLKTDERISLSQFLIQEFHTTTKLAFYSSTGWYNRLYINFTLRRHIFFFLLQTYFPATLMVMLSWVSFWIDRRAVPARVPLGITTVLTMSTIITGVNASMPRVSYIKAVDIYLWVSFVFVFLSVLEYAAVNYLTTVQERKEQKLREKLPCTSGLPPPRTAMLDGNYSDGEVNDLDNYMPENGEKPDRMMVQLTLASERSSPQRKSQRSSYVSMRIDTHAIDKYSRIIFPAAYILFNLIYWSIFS
T1 sequence (Q8NER1 whole entry): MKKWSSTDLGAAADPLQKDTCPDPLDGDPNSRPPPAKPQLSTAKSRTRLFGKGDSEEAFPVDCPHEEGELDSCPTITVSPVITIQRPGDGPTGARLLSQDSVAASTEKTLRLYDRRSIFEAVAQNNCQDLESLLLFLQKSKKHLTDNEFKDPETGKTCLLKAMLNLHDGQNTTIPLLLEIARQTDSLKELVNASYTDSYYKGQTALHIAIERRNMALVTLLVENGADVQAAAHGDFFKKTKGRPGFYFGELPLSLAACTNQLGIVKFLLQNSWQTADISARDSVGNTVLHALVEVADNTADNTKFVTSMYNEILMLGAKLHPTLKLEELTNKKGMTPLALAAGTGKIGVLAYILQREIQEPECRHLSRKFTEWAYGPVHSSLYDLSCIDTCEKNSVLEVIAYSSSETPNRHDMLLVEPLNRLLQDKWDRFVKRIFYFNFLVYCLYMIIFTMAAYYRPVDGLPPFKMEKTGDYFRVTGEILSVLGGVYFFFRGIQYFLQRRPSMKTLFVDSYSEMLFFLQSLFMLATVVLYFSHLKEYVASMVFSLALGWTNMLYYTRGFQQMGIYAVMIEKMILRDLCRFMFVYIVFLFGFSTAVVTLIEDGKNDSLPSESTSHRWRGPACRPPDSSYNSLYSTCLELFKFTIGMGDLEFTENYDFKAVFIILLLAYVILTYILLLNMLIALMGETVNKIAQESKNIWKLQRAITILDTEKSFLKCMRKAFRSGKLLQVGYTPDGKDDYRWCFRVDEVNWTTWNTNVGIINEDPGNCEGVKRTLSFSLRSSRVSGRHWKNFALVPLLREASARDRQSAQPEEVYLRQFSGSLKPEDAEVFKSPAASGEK
T2 sequence (Q8NER1 whole entry): as above
T6 sequence (Q93086 whole entry): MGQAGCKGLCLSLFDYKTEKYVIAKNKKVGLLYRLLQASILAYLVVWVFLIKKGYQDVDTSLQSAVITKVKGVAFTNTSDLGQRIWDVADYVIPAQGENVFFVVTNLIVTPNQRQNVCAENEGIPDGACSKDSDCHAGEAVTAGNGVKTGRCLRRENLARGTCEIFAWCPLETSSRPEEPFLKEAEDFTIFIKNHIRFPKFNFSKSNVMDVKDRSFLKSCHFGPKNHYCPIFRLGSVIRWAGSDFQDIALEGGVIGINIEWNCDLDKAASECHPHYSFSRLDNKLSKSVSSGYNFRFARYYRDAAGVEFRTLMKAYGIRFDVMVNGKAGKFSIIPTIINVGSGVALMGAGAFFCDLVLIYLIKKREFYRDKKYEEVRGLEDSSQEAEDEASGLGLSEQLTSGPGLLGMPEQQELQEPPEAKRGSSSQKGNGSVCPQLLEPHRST

change of BRET signal on stimulation (TRPV1 channel): does not respond
change of basal BRET after exposure (TRPV1 ion channel): only faintly and transiently increased
EC50 (P2X2): 0.888 ± 0.274 µM
EC50 (hP2X2): 1.63 µM
EC50 (hP2X4): 0.49 µM
EC50 (hP2X5): 0.48 µM
modulation of basal BRET signal (mP2X4): modulated in a dose-dependent manner
Compound: Nc1ncnc2c1ncn2[C@@H]1O[C@H](COP(=O)(O)OP(=O)(O)OP(=O)(O)O)[C@@H](O)[C@H]1O [ATP]

modulation of BRET signal (GABARho1 (GABA receptor)): modulated
Compound: NCCCC(=O)O [GABA, γ-aminobutyric acid]

EC50 (hP2X7): 49 µM
Compound: BzATP
